Measurements as given in paper PMC5218480 (PLoS ONE, 2017).

System: MV-4-11 cells
Assay: Gene expression microarray analysis (Affymetrix PrimeView) and GSEA
Assay type: cell-based, human
Design: RFU PODN (11730768_x_at) / Fold change /veh PODN (11730768_x_at) / RFU LINC00158 (11744669_a_at) / Fold change /veh LINC00158 (11744669_a_at) / RFU DUSP10 (11751237_a_at) / Fold change /veh DUSP10 (11751237_a_at) / RFU ID3 (11757404_x_at) / Fold change /veh ID3 (11757404_x_at) / RFU PLEKHG5 (11737974_s_at) / Fold change /veh PLEKHG5 (11737974_s_at) / RFU LRRC4B (11730491_at) / Fold change /veh LRRC4B (11730491_at) / RFU GIMAP4 (11747438_a_at) / Fold change /veh GIMAP4 (11747438_a_at) / RFU KRT8 (11758183_x_at) / Fold change /veh KRT8 (11758183_x_at) / RFU CNN1 (11734310_a_at) / Fold change /veh CNN1 (11734310_a_at) / RFU VPS37D (11726825_at) / Fold change /veh VPS37D (11726825_at) / RFU C10orf10 (11716522_x_at) / Fold change /veh C10orf10 (11716522_x_at) / RFU KIR2DL2 /// KIR2DL4 /// KIR2DL5A /// KIR2DL5B /// KIR2DS1 /// KIR2DS2 /// KIR2DS3 /// KIR2DS4 /// KIR3DL3 /// KIR3DL3 /// KIR3DS1 (11738374_at) / Fold change /veh KIR2DL2 /// KIR2DL4 /// KIR2DL5A /// KIR2DL5B /// KIR2DS1 /// KIR2DS2 /// KIR2DS3 /// KIR2DS4 /// KIR3DL3 /// KIR3DL3 /// KIR3DS1 (11738374_at) / RFU C1QL1 (11718748_at) / Fold change /veh C1QL1 (11718748_at) / RFU TMPRSS4 (11747572_a_at) / Fold change /veh TMPRSS4 (11747572_a_at) / RFU HAMP (11756126_x_at) / Fold change /veh HAMP (11756126_x_at) / RFU RNFT2 (11725882_a_at) / Fold change /veh RNFT2 (11725882_a_at) / RFU NR4A2 (11747474_a_at) / Fold change /veh NR4A2 (11747474_a_at) / RFU ABCC12 (11746883_a_at) / Fold change /veh ABCC12 (11746883_a_at) / RFU TMEM136 (11760407_x_at) / Fold change /veh TMEM136 (11760407_x_at) / RFU CLDN22 /// WWC2 (11732394_at) / Fold change /veh CLDN22 /// WWC2 (11732394_at) / RFU HLA-DPB1 (11760878_x_at) / Fold change /veh HLA-DPB1 (11760878_x_at) / RFU SPINT1 (11716480_a_at) / Fold change /veh SPINT1 (11716480_a_at) / RFU GAP43 (11754022_s_at) / Fold change /veh GAP43 (11754022_s_at) / RFU A4GNT (11735810_at) / Fold change /veh A4GNT (11735810_at) / RFU PRB3 (11715151_x_at) / Fold change /veh PRB3 (11715151_x_at) / RFU TUBB4B (11761932_at) / Fold change /veh TUBB4B (11761932_at) / RFU CAPN14 (11732068_a_at) / Fold change /veh CAPN14 (11732068_a_at) / RFU TMCC2 (11721928_a_at) / Fold change /veh TMCC2 (11721928_a_at) / RFU IRGQ (11745062_a_at) / Fold change /veh IRGQ (11745062_a_at) / RFU FAM174B (11720279_a_at) / Fold change /veh FAM174B (11720279_a_at) / RFU TMPRSS4 (11748680_a_at) / Fold change /veh TMPRSS4 (11748680_a_at) / RFU FAM212B (11763350_a_at) / Fold change /veh FAM212B (11763350_a_at) / RFU PLEKHG5 (11743358_a_at) / Fold change /veh PLEKHG5 (11743358_a_at) / RFU ZSCAN30 (11745921_a_at) / Fold change /veh ZSCAN30 (11745921_a_at) / RFU CMKLR1 (11741424_a_at) / Fold change /veh CMKLR1 (11741424_a_at) / RFU LOC101060620 /// MAPK8IP1 (11723275_at) / Fold change /veh LOC101060620 /// MAPK8IP1 (11723275_at) / RFU SPTSSB (11747773_x_at) / Fold change /veh SPTSSB (11747773_x_at) / RFU PRSS12 (11739890_at) / Fold change /veh PRSS12 (11739890_at) / RFU BIN1 (11741810_x_at) / Fold change /veh BIN1 (11741810_x_at) / RFU WNT11 (11732464_a_at) / Fold change /veh WNT11 (11732464_a_at) / RFU C10orf10 (11716521_a_at) / Fold change /veh C10orf10 (11716521_a_at) / RFU C5orf56 (11738089_at) / Fold change /veh C5orf56 (11738089_at) / RFU CYB561 (11721691_x_at) / Fold change /veh CYB561 (11721691_x_at) / RFU ANKRD19P (11752326_a_at) / Fold change /veh ANKRD19P (11752326_a_at) / RFU OR2T12 /// OR2T33 /// OR2T8 (11738714_s_at) / Fold change /veh OR2T12 /// OR2T33 /// OR2T8 (11738714_s_at) / RFU VCAN (11748164_a_at) / Fold change /veh VCAN (11748164_a_at) / RFU JSRP1 (11732532_at) / Fold change /veh JSRP1 (11732532_at) / RFU KRTAP10-11 (11738290_x_at) / Fold change /veh KRTAP10-11 (11738290_x_at) / RFU MYO3A (11730013_a_at) / Fold change /veh MYO3A (11730013_a_at) / RFU EBF3 (11725865_a_at) / Fold change /veh EBF3 (11725865_a_at) / RFU CAMK2N1 (11719241_x_at) / Fold change /veh CAMK2N1 (11719241_x_at) / RFU C5orf56 (11738088_a_at) / Fold change /veh C5orf56 (11738088_a_at) / RFU OLFML3 (11715873_a_at) / Fold change /veh OLFML3 (11715873_a_at) / RFU LOC100653217 /// NTM (11731650_a_at) / Fold change /veh LOC100653217 /// NTM (11731650_a_at) / RFU MAPK11 (11762145_a_at) / Fold change /veh MAPK11 (11762145_a_at) / RFU FIZ1 (11724087_x_at) / Fold change /veh FIZ1 (11724087_x_at) / RFU OASL (11726364_x_at) / Fold change /veh OASL (11726364_x_at) / RFU SOX15 (11748057_x_at) / Fold change /veh SOX15 (11748057_x_at) / RFU CD79A (11719716_a_at) / Fold change /veh CD79A (11719716_a_at) / RFU HIST1H1D (11736915_at) / Fold change /veh HIST1H1D (11736915_at) / RFU CASKIN2 (11723855_a_at) / Fold change /veh CASKIN2 (11723855_a_at) / RFU LOC730098 (11760151_x_at) / Fold change /veh LOC730098 (11760151_x_at) / RFU OR4N2 (11742367_at) / Fold change /veh OR4N2 (11742367_at) / RFU PRRT2 (11749266_a_at) / Fold change /veh PRRT2 (11749266_a_at) / RFU SNX32 (11753110_a_at) / Fold change /veh SNX32 (11753110_a_at) / RFU CDHR5 (11726645_a_at) / Fold change /veh CDHR5 (11726645_a_at) / RFU RCAN1 (11760418_a_at) / Fold change /veh RCAN1 (11760418_a_at) / RFU FAM167A (11723789_a_at) / Fold change /veh FAM167A (11723789_a_at) / RFU FAM26E (11764081_at) / Fold change /veh FAM26E (11764081_at) / RFU ISYNA1 (11749810_s_at) / Fold change /veh ISYNA1 (11749810_s_at) / RFU ACY1 (11761880_at) / Fold change /veh ACY1 (11761880_at) / RFU 11764098_at / Fold change /veh 11764098_at / RFU SAMD14 (11745864_x_at) / Fold change /veh SAMD14 (11745864_x_at) / RFU NPB (11741838_a_at) / Fold change /veh NPB (11741838_a_at) / RFU TMPRSS6 (11731388_a_at) / Fold change /veh TMPRSS6 (11731388_a_at) / RFU KRTAP10-2 (11738614_at) / Fold change /veh KRTAP10-2 (11738614_at) / RFU ARHGAP8 /// PRR5-ARHGAP8 (11727945_x_at) / Fold change /veh ARHGAP8 /// PRR5-ARHGAP8 (11727945_x_at) / RFU KRTAP5-7 /// NADSYN1 (11734609_at) / Fold change /veh KRTAP5-7 /// NADSYN1 (11734609_at) / RFU RASL12 (11751679_a_at) / Fold change /veh RASL12 (11751679_a_at) / RFU CDKN2B (11736163_a_at) / Fold change /veh CDKN2B (11736163_a_at) / RFU PRF1 (11729649_at) / Fold change /veh PRF1 (11729649_at) / RFU, ZNF638 /// ZNF638-IT1 / Fold change vs veh, ZNF638 /// ZNF638-IT1 / RFU, PANK3 / Fold change vs veh, PANK3 / RFU, SH3YL1 / Fold change vs veh, SH3YL1 / RFU, ZEB2 / Fold change vs veh, ZEB2 / RFU, NRIP1 / Fold change vs veh, NRIP1 / RFU, PTTG1IP / Fold change vs veh, PTTG1IP / RFU, CAPN2 / Fold change vs veh, CAPN2 / RFU, MED14 / Fold change vs veh, MED14 / RFU, SNORA58 / Fold change vs veh, SNORA58 / RFU, C1orf63 / Fold change vs veh, C1orf63 / RFU, LRRFIP1 / Fold change vs veh, LRRFIP1 / RFU, NDUFAF7 / Fold change vs veh, NDUFAF7 / RFU, SLC12A2 / Fold change vs veh, SLC12A2 / RFU, IBTK / Fold change vs veh, IBTK / RFU, ESF1 / Fold change vs veh, ESF1 / Fold change vs veh, TMEM50B / RFU, TAOK1 / Fold change vs veh, TAOK1 / RFU, ACBD3 / Fold change vs veh, ACBD3 / RFU, TMA16 / Fold change vs veh, TMA16 / RFU, RWDD3 / Fold change vs veh, RWDD3 / RFU, BCAT1 / Fold change vs veh, BCAT1 / RFU, EDEM3 / Fold change vs veh, EDEM3 / RFU, TMEM33 / Fold change vs veh, TMEM33 / RFU, WDR75 / Fold change vs veh, WDR75 / RFU, AHCTF1 / Fold change vs veh, AHCTF1 / RFU, TFRC / Fold change vs veh, TFRC / RFU, ZDHHC17 / Fold change vs veh, ZDHHC17 / RFU, NOM1 / Fold change vs veh, NOM1 / RFU, ARL8B / Fold change vs veh, ARL8B / RFU, ZBTB11 / Fold change vs veh, ZBTB11 / RFU, TAMM41 / Fold change vs veh, TAMM41 / RFU, KIAA1704 /// LOC100996395 / Fold change vs veh, KIAA1704 /// LOC100996395 / RFU, ING1 / Fold change vs veh, ING1 / RFU, TRMT61B / Fold change vs veh, TRMT61B / RFU, FUBP3 / Fold change vs veh, FUBP3 / RFU, TP53 / Fold change vs veh, TP53 / RFU, TNKS2 / Fold change vs veh, TNKS2 / RFU, ZFP14 / Fold change vs veh, ZFP14 / RFU, ACTR2 / Fold change vs veh, ACTR2 / RFU, PPP3R1 / Fold change vs veh, PPP3R1 / RFU, PIK3R1 / Fold change vs veh, PIK3R1 / RFU, HNRNPA1 / Fold change vs veh, HNRNPA1 / RFU, RNF170 / Fold change vs veh, RNF170 / RFU, ZNF28 / Fold change vs veh, ZNF28 / RFU, RNGTT / Fold change vs veh, RNGTT / RFU, OGT / Fold change vs veh, OGT / RFU, BRD1 / Fold change vs veh, BRD1 / RFU, MARS / Fold change vs veh, MARS / RFU, ZNF655 / Fold change vs veh, ZNF655 / RFU, FAHD1 / Fold change vs veh, FAHD1 / RFU, BDP1 / Fold change vs veh, BDP1 / RFU, LRRCC1 / Fold change vs veh, LRRCC1 / RFU, ARID1A / Fold change vs veh, ARID1A / RFU, ZNF146 / Fold change vs veh, ZNF146 / RFU, ZNF330 / Fold change vs veh, ZNF330 / RFU, GPN3 / Fold change vs veh, GPN3 / RFU, C9orf123 / Fold change vs veh, C9orf123 / RFU, N4BP2L2 / Fold change vs veh, N4BP2L2 / RFU, ARFIP1 / Fold change vs veh, ARFIP1 / RFU, FAM179B / Fold change vs veh, FAM179B / RFU, BCL10 / Fold change vs veh, BCL10 / RFU, UHRF1BP1L / Fold change vs veh, UHRF1BP1L / RFU, BET1 / Fold change vs veh, BET1 / RFU, CNOT2 / Fold change vs veh, CNOT2 / RFU, ZNF268 / Fold change vs veh, ZNF268 / Fold change vs veh, ZNF507 / RFU, DGCR2 / Fold change vs veh, DGCR2 / RFU, WDSUB1 / Fold change vs veh, WDSUB1 / Fold change vs veh, HSP90B1 /// MIR3652 / RFU, ADSS / Fold change vs veh, ADSS / RFU, GK / Fold change vs veh, GK / RFU, ZNF148 / Fold change vs veh, ZNF148 / RFU, TAF9 / Fold change vs veh, TAF9 / RFU, SLC1A5 / Fold change vs veh, SLC1A5 / RFU, SLMO2 / Fold change vs veh, SLMO2 / RFU, ABCC4 / Fold change vs veh, ABCC4 / RFU, LOC101060439 /// RAP1B / Fold change vs veh, LOC101060439 /// RAP1B / RFU, RFX7 / Fold change vs veh, RFX7 / RFU, GTPBP10 / Fold change vs veh, GTPBP10 / RFU, CNEP1R1 / Fold change vs veh, CNEP1R1 / RFU, BIVM-ERCC5 /// ERCC5 / Fold change vs veh, BIVM-ERCC5 /// ERCC5 / RFU, ILF3 / Fold change vs veh, ILF3 / RFU 11762660_at / Fold change /veh 11762660_at / RFU VCAN (11757783_s_at) / Fold change /veh VCAN (11757783_s_at) / RFU DDX43 (11728927_at) / Fold change /veh DDX43 (11728927_at) / RFU KRT8 (11758188_x_at) / Fold change /veh KRT8 (11758188_x_at) / RFU NKD1 (11759106_at) / Fold change /veh NKD1 (11759106_at) / RFU SRD5A1 (11742802_a_at) / Fold change /veh SRD5A1 (11742802_a_at) / RFU TPSAB1 /// TPSB2 (11721975_s_at) / Fold change /veh TPSAB1 /// TPSB2 (11721975_s_at) / RFU GSTM3 (11746129_a_at) / Fold change /veh GSTM3 (11746129_a_at) / RFU IL23R (11737362_x_at) / Fold change /veh IL23R (11737362_x_at) / RFU TMEM51 (11727254_a_at) / Fold change /veh TMEM51 (11727254_a_at) / RFU PIWIL2 (11732686_x_at) / Fold change /veh PIWIL2 (11732686_x_at) / RFU ORM1 (11744905_x_at) / Fold change /veh ORM1 (11744905_x_at) / RFU CCDC152 (11743942_at) / Fold change /veh CCDC152 (11743942_at) / RFU ECM1 (11717891_a_at) / Fold change /veh ECM1 (11717891_a_at) / RFU IL23R (11748794_a_at) / Fold change /veh IL23R (11748794_a_at) / RFU TNFAIP8L3 (11732012_x_at) / Fold change /veh TNFAIP8L3 (11732012_x_at) / RFU MBOAT4 (11741988_at) / Fold change /veh MBOAT4 (11741988_at) / RFU 11764193_at / Fold change /veh 11764193_at / RFU TMEM53 (11763286_at) / Fold change /veh TMEM53 (11763286_at) / RFU MAGEB2 (11727129_at) / Fold change /veh MAGEB2 (11727129_at) / RFU TMEM200A (11744735_a_at) / Fold change /veh TMEM200A (11744735_a_at) / RFU CCDC152 (11751479_a_at) / Fold change /veh CCDC152 (11751479_a_at) / RFU FAM211A (11726209_a_at) / Fold change /veh FAM211A (11726209_a_at) / RFU RGS16 (11746705_a_at) / Fold change /veh RGS16 (11746705_a_at) / RFU VCAN (11755009_s_at) / Fold change /veh VCAN (11755009_s_at) / RFU RHOB (11743442_s_at) / Fold change /veh RHOB (11743442_s_at) / RFU RGS16 (11720943_a_at) / Fold change /veh RGS16 (11720943_a_at) / RFU RGS16 (11720944_at) / Fold change /veh RGS16 (11720944_at) / RFU, VPS4B / Fold change vs veh, VPS4B / RFU, CREB1 / Fold change vs veh, CREB1 / RFU, DNAJC13 / Fold change vs veh, DNAJC13 / RFU, GNAQ / Fold change vs veh, GNAQ / RFU, CDK5R1 / Fold change vs veh, CDK5R1 / RFU, ZRANB3 / Fold change vs veh, ZRANB3 / RFU, CUL4A / Fold change vs veh, CUL4A / RFU, CCNY / Fold change vs veh, CCNY / RFU, UFL1 / Fold change vs veh, UFL1 / RFU, COG3 / Fold change vs veh, COG3 / RFU, DIAPH2 / Fold change vs veh, DIAPH2 / RFU, SKA2 / Fold change vs veh, SKA2 / RFU, AFF3 / Fold change vs veh, AFF3 / RFU, LMF1 / Fold change vs veh, LMF1 / RFU, IPO11 / Fold change vs veh, IPO11 / RFU, DFFB / Fold change vs veh, DFFB / RFU, FOXP1 / Fold change vs veh, FOXP1 / RFU, CARD8 / Fold change vs veh, CARD8 / RFU, STRN3 / Fold change vs veh, STRN3 / RFU, ADK / Fold change vs veh, ADK / RFU, RASSF2 / Fold change vs veh, RASSF2 / RFU, WIPF1 / Fold change vs veh, WIPF1 / RFU, LARP1B / Fold change vs veh, LARP1B / RFU, RASA1 / Fold change vs veh, RASA1 / RFU, RB1 / Fold change vs veh, RB1 / RFU, PPFIA1 / Fold change vs veh, PPFIA1 / RFU, MAT2A / Fold change vs veh, MAT2A / RFU, CCT5 / Fold change vs veh, CCT5 / RFU, WDR92 / Fold change vs veh, WDR92 / RFU, CUX1 / Fold change vs veh, CUX1 / RFU, TTC7A / Fold change vs veh, TTC7A / RFU, TMEM135 / Fold change vs veh, TMEM135 / RFU, DEPTOR / Fold change vs veh, DEPTOR / RFU, CPM / Fold change vs veh, CPM / RFU, DNAJB6 / Fold change vs veh, DNAJB6 / RFU, CACNA2D3 / Fold change vs veh, CACNA2D3 / RFU, DTX4 / Fold change vs veh, DTX4 / RFU, TFCP2 / Fold change vs veh, TFCP2 / RFU, GMCL1 /// GMCL1P1 / Fold change vs veh, GMCL1 /// GMCL1P1 / RFU, AEBP2 / Fold change vs veh, AEBP2 / RFU, SNHG1 /// SNORD22 /// SNORD25 /// SNORD26 /// SNORD27 /// SNORD28 /// SNORD29 /// SNORD31 / Fold change vs veh, SNHG1 /// SNORD22 /// SNORD25 /// SNORD26 /// SNORD27 /// SNORD28 /// SNORD29 /// SNORD31 / Fold change (Aza/veh), C12orf56 (ProbeSet 11735607_a_at) / Fold change (ACY-1035/veh), C12orf56 (ProbeSet 11735607_a_at) / Fold change (Aza/veh), FGFR1OP (ProbeSet 11751329_s_at) / Fold change (ACY-1035/veh), FGFR1OP (ProbeSet 11751329_s_at) / Fold change (Aza/veh), VPS36 (ProbeSet 11739960_a_at) / Fold change (ACY-1035/veh), VPS36 (ProbeSet 11739960_a_at) / RFU SYPL1 (11715823_x_at) / Fold change /veh SYPL1 (11715823_x_at) / RFU IGFBP7 (11715501_s_at) / Fold change /veh IGFBP7 (11715501_s_at) / RFU REEP3 (11722064_at) / Fold change /veh REEP3 (11722064_at) / RFU IGLL1 (11728026_x_at) / Fold change /veh IGLL1 (11728026_x_at): dose or concentration left out as unconfirmed
Settings: ProbeSet 11739106_a_at; LIST B

## Nc1ccc(-c2cccs2)cc1NC(=O)c1ccc2c(c1)cc(C1CC1)n2CCN1CCOCC1 [ACY-1035]
  RFU, TMEM33: 263.53 RFU
